Experimental data from patent US4871661A, “Process for testing the carcinogenicity of a material or the presence of cancer-inducing factors in an environment” (priority 1985, dated 1989).
Like-named read-outs stand apart in the source and are kept apart here.

Tests used:
[1] = tested on: cancer-associated phosphoprotein; conditions: for induction of the cancer-associated phosphoprotein in the plasma: rat plasma, result in words
[2] = tested on: cancer-associated phosphoprotein; experiment: ELISA assay of purified 60K plasma protein fraction from rats exposed to test compound; assay type: in vivo, rat (Sprague-Dawley strain)
Experimental: This example illustrates a process of the present invention in which the assay for the cancer-associated phosphoprotein is effected by means of an ELISA test.
Samples of the purified 60K protein fraction from the Sepharose CL-6B column used in Example 1 above were subjected to an ELISA assay. […] Also subjected to the same ELISA assay were purified protein fractions from the control rats and from a rat suffering from a hepatoma 7777 tumor.
The ELISA assay was conducted in the following manner. A sample of the cancer-associated phosphoprotein prepared in the manner described in Example 1 of the aforementioned parent application Ser. No. 554,439 was bound to a well in a plastic tray, and the well thereafter washed thoroughly. A polyclonal rabbit antibody serum prepared as described in Example 2 of the aforementioned parent application Ser. No. 554,439 was then mixed with the protein sample to be assayed and the resultant mixture incubated at 37° C. for 30 minutes. The mixture was then added to the well containing the cancer-associated phosphoprotein, and the tray incubated for one hour at 37° C., then washed thoroughly. Following this washing, there was added to the well a goat anti-rabbit IgG antibody serum conjugated to horseradish peroxidase enzyme, and the tray was incubated for one hour at 37° C. then washed thoroughly. The substrate for the horseradish peroxidase enzyme, namely 2,2-azino-di(3-ethylbenzthiazoline sulfonic acid) was added to the well and the tray incubated to 15 minutes at room temperature. The color development was then stopped by addition of a 2 mM solution of sodium azide and the intensity of the color in the wells determined using a spectrophotometer at […].
To determine the maximum possible optical density, a control test was run in which the test sample was replaced with a buffer containing no cancer-associated phosphoprotein; this optical density represents the maximum possible reaction of uninhibited antibody binding to the bound cancer-associated phosphoprotein. […] The optical density of a well containing as a control sample an equivalent fraction of normal rat plasma free of cancer-associated phosphoprotein is designated 0% inhibition; the optical density of this control sample should be close to that of the sample using the buffer solution The samples tested for the presence of the cancer-associated phosphoprotein are designated positive when the optical density exceeds that of the control value by two standard deviations. The concentration of cancer-associated phosphoprotein is directly related to the percentage inhibition and can be compared to that of the standard solution of the cancer-associated phosphoprotein.

[3] = tested on: transformed cells; conditions: some types of transformed cells; cited from earlier work
[4] = tested on: cancer-associated phosphoprotein; assay type: in vivo, rat; conditions: acute or chronic treatment of rats
Excerpt: Further experiments indicate that release of the cancer-associated phosphoprotein into the plasma was not induced upon induction of liver regeneration in the rat by partial hepatectomy, nor by acute or chronic treatment of the rats with the non-carcinogenic tumor promoter phenobarbital.

[5] = tested on: rat; conditions: cited from earlier work
[6] = 160 micromoles/kg, intraperitoneal, plasma ~21 days after exposure, control subtracted
[7] = ELISA inhibition, plasma fraction of treated rat, standard phosphoprotein solution = 100%, normal rat plasma fraction = 0%
[8] = 200 micromoles/kg, intraperitoneal, plasma ~21 days after exposure, control subtracted
[9] = 210 micromoles/kg, intraperitoneal, plasma ~21 days after exposure, control subtracted
[10] = 600 micromoles/kg, intraperitoneal, plasma ~21 days after exposure, control subtracted
[11] = 1 millimole/kg, intraperitoneal, plasma ~21 days after exposure, control subtracted

c1ccc2c(c1)Cc1ccccc1-2 [Fluorene]
RNA-releasing Activity [1, 6]: 0.14 percent nuclear counts per min

Cc1cc2nc3c(=O)[nH]c(=O)nc-3n(C[C@H](O)[C@H](O)[C@H](O)CO)c2cc1C [Riboflavin]
Percentage Inhibition [2, 7]: 11% | RNA-releasing Activity ([1]; 265 micromoles/kg, intraperitoneal, plasma ~21 days after exposure, control subtracted): 0.01 percent nuclear counts per min

O=[N+]([O-])c1ccc2ccc3cccc4ccc1c2c34 [1-Nitropyrene]
Percentage Inhibition [2, 7]: 74% | RNA-releasing Activity ([1]; 105 micromoles/kg, intraperitoneal, plasma ~21 days after exposure, control subtracted): 5.30 percent nuclear counts per min

CN(C)N=O [N--Nitroso-N,N--dimethylamine]
RNA-releasing Activity ([1]; 135 micromoles/kg, intraperitoneal, plasma ~21 days after exposure, control subtracted): 3.40 percent nuclear counts per min

CN(C)C=O [Dimethylformamide]
ability to induce differentiation of transformed cells [3]: reversably induce the differentiation of some types of transformed cells | RNA-releasing Activity [1, 8]: 1.30 percent nuclear counts per min | induction of the cancer-associated phosphoprotein in the plasma [1]: induced significant quantities

c1ccc2c(c1)c1cccc3ccc4cccc2c4c31 [Benzo[e]pyrene]
RNA-releasing Activity [1, 9]: 3.37 percent nuclear counts per min

Cc1c2ccccc2c(C)c2c1ccc1ccccc12 [7,12-Dimethylbenz[a]anthracene]
RNA-releasing Activity [1, 6]: 6.42 percent nuclear counts per min

Cn1c(=O)c2c(ncn2C)n(C)c1=O [Caffeine]
Percentage Inhibition ([2]; rat, in vivo): 14 | RNA-releasing Activity ([1]; rat, in vivo, ip): 0.07

c1ccc2cc3c(ccc4ccccc43)cc2c1 [Benz[a]anthracene]
RNA-releasing Activity [1, 6]: 4.92 percent nuclear counts per min

CN(N=O)C(N)=O [N--Methyl-N--nitrosourea]
RNA-releasing Activity ([1]; 440 micromoles/kg, intraperitoneal, plasma ~21 days after exposure, control subtracted): 4.69 percent nuclear counts per min

c1ccc2c(c1)cc1ccc3cccc4ccc2c1c34 [Benzo[a]pyrene]
RNA-releasing Activity [1, 9]: 7.73 percent nuclear counts per min

c1ccc2nc3ccccc3cc2c1 [Acridine]
Percentage Inhibition [2, 7]: 2% | RNA-releasing Activity ([1]; 15 micromoles/kg, intraperitoneal, plasma ~21 days after exposure, control subtracted): 0.00 percent nuclear counts per min

COc1cc2c(c3oc(=O)c4c(c13)CCOC4=O)[C@@H]1CCO[C@@H]1O2 [Aflatoxin G2]
RNA-releasing Activity ([1]; rat, in vivo, ip): 3.80

COc1cc2c(c3oc(=O)c4c(c13)CCC4=O)[C@@H]1C=CO[C@@H]1O2 [Aflatoxin B1]
RNA-releasing Activity ([1]; rat, in vivo): 4.37

C=CCc1ccc2c(c1)OCO2 [Safrole]
Percentage Inhibition [2, 7]: 80% | RNA-releasing Activity [1, 10]: 5.90 percent nuclear counts per min

c1ccc2cc3ccccc3cc2c1 [Anthracene]
RNA-releasing Activity [1, 6]: 0.17 percent nuclear counts per min

CNNC [1,2-dimethylhydrazine]
Percentage Inhibition [2, 7]: 79% | RNA-releasing Activity ([1]; 560 micromoles/kg, intraperitoneal, plasma ~21 days after exposure, control subtracted): 5.71 percent nuclear counts per min

CCOC(N)=O [Ethyl carbamate (urethane), Ethyl carbamate]
RNA-releasing Activity ([1]; 11.2 millimoles/kg, intraperitoneal, plasma ~21 days after exposure, control subtracted): 3.80 percent nuclear counts per min

CCC1(c2ccccc2)C(=O)NC(=O)NC1=O [Phenobarbital]
release of the cancer-associated phosphoprotein into the plasma [4]: not induced | RNA-releasing Activity ([1]; 80 micromoles/kg, intraperitoneal, plasma ~21 days after exposure, control subtracted): 0.08 percent nuclear counts per min

Nc1ccc2ccccc2c1 [2-Naphthylamine]
RNA-releasing Activity ([1]; 500 micromoles/kg, intraperitoneal, plasma ~21 days after exposure, control subtracted): 3.29 percent nuclear counts per min

CCN(N=O)C(N)=O [N--Ethyl-N--nitrosourea]
RNA-releasing Activity [1, 10]: 4.50 percent nuclear counts per min

c1cc2ccc3cccc4ccc(c1)c2c34 [Pyrene]
RNA-releasing Activity [1, 6]: 0.05 percent nuclear counts per min

Clc1cc2c(cc1Cl)Oc1cc(Cl)c(Cl)cc1O2 [2,3,7,8-Tetrachlorodibenzo-p-dioxine]
toxicity in the rat [5]: very potent toxins in the rat | RNA-releasing Activity ([1]; 0.125 micromoles/kg, intraperitoneal, plasma ~21 days after exposure, control subtracted): 0.00 percent nuclear counts per min | induction of the cancer-associated phosphoprotein in the plasma [1]: do not induce significant quantities of the cancer-associated phosphoprotein

ClC(Cl)(Cl)Cl [Carbon tetrachloride, carbon tetrachloride]
Percentage Inhibition ([2]; ELISA inhibition, plasma fraction of treated rat, standard phosphoprotein solution = 100%, normal rat plasma fraction = 0%, listed as Carbon tetrachloride-1): 1% | Percentage Inhibition ([2]; ELISA inhibition, plasma fraction of treated rat, standard phosphoprotein solution = 100%, normal rat plasma fraction = 0%, listed as Carbon tetrachloride-2): 10%

CCCCN(CCCC)N=O [N--Nitroso-N,N--dibutylamine]
Percentage Inhibition [2, 7]: 75% | RNA-releasing Activity ([1]; 760 micromoles/kg, intraperitoneal, plasma ~21 days after exposure, control subtracted): 5.44 percent nuclear counts per min

Cc1c(F)ccc2ccc3cc4ccccc4c(C)c3c12 [2-Fluoro-1,12-dimethylbenz[a]anthracene]
RNA-releasing Activity [1, 6]: 0.10 percent nuclear counts per min

Cc1ccc2cc3c(ccc4ccccc43)c3c2c1CC3 [3-Methylcholanthrene]
RNA-releasing Activity [1, 6]: 5.62 percent nuclear counts per min

CCN(CC)N=O [N--Nitroso-N,N--diethylamine]
RNA-releasing Activity [1, 11]: 4.21 percent nuclear counts per min

c1ccc2ccccc2c1 [Naphthalene]
Percentage Inhibition [2, 7]: 18% | RNA-releasing Activity [1, 11]: 0.12 percent nuclear counts per min

CC(=O)Nc1ccc2c(c1)Cc1ccccc1-2 [2-Acetylaminofluorene]
Percentage Inhibition [2, 7]: 87% | RNA-releasing Activity [1, 8]: 5.11 percent nuclear counts per min

O=C(O)C(F)(F)C(F)(F)C(F)(F)C(F)(F)C(F)(F)C(F)(F)C(F)(F)C(F)(F)C(F)(F)F [Nonadecafluorodecanoic acid]
toxicity in the rat [5]: very potent toxins in the rat | RNA-releasing Activity ([1]; 50 micromoles/kg, intraperitoneal, plasma ~21 days after exposure, control subtracted): 0.00 percent nuclear counts per min | induction of the cancer-associated phosphoprotein in the plasma [1]: do not induce significant quantities of the cancer-associated phosphoprotein
